Assay results taken from ChEMBL document CHEMBL6096665 (Eur J Med Chem, 2025).
pEC50: −log10 of the molar value.

Molecular target: T1, Bile acid receptor (Homo sapiens, UniProt Q96RI1)
T1 sequence (Q96RI1 whole entry): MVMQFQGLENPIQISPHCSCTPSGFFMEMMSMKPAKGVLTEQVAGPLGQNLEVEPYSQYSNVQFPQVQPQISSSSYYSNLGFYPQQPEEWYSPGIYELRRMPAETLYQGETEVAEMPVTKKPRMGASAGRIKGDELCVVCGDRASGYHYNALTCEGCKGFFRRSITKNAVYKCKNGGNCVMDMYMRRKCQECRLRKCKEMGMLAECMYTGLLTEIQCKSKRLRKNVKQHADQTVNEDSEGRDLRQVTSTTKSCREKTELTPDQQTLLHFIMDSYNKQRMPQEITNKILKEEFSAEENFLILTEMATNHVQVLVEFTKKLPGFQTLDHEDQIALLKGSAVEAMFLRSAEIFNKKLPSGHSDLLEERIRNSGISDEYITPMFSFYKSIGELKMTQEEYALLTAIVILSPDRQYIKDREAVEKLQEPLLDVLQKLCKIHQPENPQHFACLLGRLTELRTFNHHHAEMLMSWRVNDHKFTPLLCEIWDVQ
Assay: Agonist activity at FXR-LBD (unknown origin) incubated for 3 hrs using fluorescein coactivator peptide by FRET assay

- pEC50: 6.60
Structure (SMILES): O=C(O)c1ccc(OCc2ccc(OCc3c(-c4c(Cl)cccc4Cl)noc3C3CC3)cc2)cc1
